From patent US9340575B2, “Agonists and antagonists of the urotensinergic system” (INSTITUT NATIONAL DE LA RECHERCHE SCIENTIFIQUE, priority 2011, dated 2016)

Assays:
[1] = biological target: T1, human urotensin II receptor (UT) (Homo sapiens, UniProt Q9UKP6); test: Competitive radioligand binding on CHO-UT cells; conditions: for IC50: recombinant human UT
T1 construct: expressed in transfected cells; host or cells: CHO cells (CHO-UT), stably transfected, G418 selection
T1 sequence (Q9UKP6 1-389): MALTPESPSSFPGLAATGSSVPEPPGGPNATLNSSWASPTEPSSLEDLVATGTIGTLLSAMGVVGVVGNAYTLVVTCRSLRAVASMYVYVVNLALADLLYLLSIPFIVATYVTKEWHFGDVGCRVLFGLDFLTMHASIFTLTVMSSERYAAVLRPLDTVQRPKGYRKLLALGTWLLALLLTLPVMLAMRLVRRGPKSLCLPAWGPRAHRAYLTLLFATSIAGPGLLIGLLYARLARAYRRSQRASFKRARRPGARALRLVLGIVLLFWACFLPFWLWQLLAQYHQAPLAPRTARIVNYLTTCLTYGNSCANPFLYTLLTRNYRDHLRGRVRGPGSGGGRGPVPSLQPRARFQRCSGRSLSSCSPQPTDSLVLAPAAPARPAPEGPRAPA
Experimental: Transfected CHO cells expressing the human urotensin receptor (CHO-UT) were maintained in Ham-F12 medium with 10% fetal bovine serum (FBS), 2 mM L-glutamine, 100 UI/mL each of penicillin and streptomycin, and 400 μg/mL G418. […] Binding assays were following known literature procedures using CHO cells stably transfected with hGPR14. […] After 90 min of incubation at room temperature, cells were washed, lysed, and the cell-bound radioactivity was quantified using a γ-counter. […] The cells were then washed, lysed, and the radioactivity counted on a γ-counter (1470 Automatic Gamma Counter, Perkin Elmer). Binding and functional experiments were performed at least in triplicate and data, expressed as mean±S.E.M, were analyzed using the Prism software (Graph Pad Software, San Diego, Calif.). In all experiments, n represents the total number of animals studied or individual assays performed. The EC50, pEC50, pIC50 values as well as the Emax value were determined from the concentration-response curves using a sigmoidal dose-response fit with variable slope. […] The slope is calculated from the double reciprocal plot of equiactive concentrations of agonist in the presence and absence of antagonist.

rat isolated aorta = test: Reversal of hUII-induced contractile tone in rat isolated aorta; format: cell-based; conditions: tone established with 4 nM hUII (EC80)
Experimental: Male rats (Sprague-Dawley, 250-300 g) were killed by CO2 asphyxiation. The thoracic aorta was then cleared of surrounding tissues and excised from aortic arch to the diaphragm. From each vessel, conjunctive tissues were removed and the clean vessel was cut into 4 mm rings. The endothelium was removed by gently rubbing the vessel's intimal surface. All preparations were placed in 5 ml organ baths filled with oxygenated normal Krebs-Henselheit solution. Contractile responses to 40 mM KCl were used as control at the beginning and at the end of each experiment. Agonistic activity was measured by increasing the concentration of the peptide in the organ chamber (3×10^−11-3×10^−6 M). For antagonist behaviour, thoracic aortic rings were first exposed to URP derivative over a period of 15 min, and then cumulative concentration-response curves to hUII, URP or ET-1 (10^−10-3×10^−6 M) were constructed. The amplitude of the contraction induced by each concentration of peptide was expressed as a percentage of the KCl-induced contraction. Finally, the ability of the antagonist to reverse the hUII-induced contraction was also evaluated. Vessels were pre-contracted with 4 nM hUII (pre-determined EC80) and after the maximum contraction was attained, contractile tone was reversed by adding increasing log unit concentrations of URP derivative.

In the case of CC(C)[C@H](NC(=O)[C@@H]1CSSC[C@H](NC(=O)[C@H](C)N)C(=O)N[C@@H](Cc2ccccc2)C(=O)N[C@@H](Cc2ccc(-c3ccccc3)cc2)C(=O)N[C@@H](CCCCN)C(=O)N[C@@H](Cc2ccc(O)cc2)C(=O)N1)C(=O)O [[Bip^4]URP, H-Ala-Cys-Phe-Bip-Lys-Tyr-Cys-Val-OH], the IC50 ([1]; Binding (125I-URP) IC50 (nM), radioligand 125I-URP) is reported as 339 nM, the IC50 ([1]; Binding (125I-hUII) IC50 (nM), radioligand 125I-hUII) is reported as 386 nM and the “Displacement of both radioligands (125I-hUII and 125I-URP)” value ([1]; CHO-UT cells) is reported as 100%. For the same compound, the “Suppression of contractile tone” value (rat isolated aorta) was 92% and the “pIC50 for reversal of contractile tone” value (rat isolated aorta) was 7.72±0.15.
